According to BindingDB's records for doi:10.1016/j.bmcl.2021.128422 (Tohoku Medical and Pharmaceutical University, 2021):

Biological target: Maltase-glucoamylase (Homo sapiens, UniProt O43451)
Assay: Inhibition of alpha-glucosidase (unknown origin) using p-nitrophenyl-alpha-D-glucopyranoside as substrate incubated for 50 mins by microplate reader analysis

Chain of Maltase-glucoamylase (O43451 whole entry): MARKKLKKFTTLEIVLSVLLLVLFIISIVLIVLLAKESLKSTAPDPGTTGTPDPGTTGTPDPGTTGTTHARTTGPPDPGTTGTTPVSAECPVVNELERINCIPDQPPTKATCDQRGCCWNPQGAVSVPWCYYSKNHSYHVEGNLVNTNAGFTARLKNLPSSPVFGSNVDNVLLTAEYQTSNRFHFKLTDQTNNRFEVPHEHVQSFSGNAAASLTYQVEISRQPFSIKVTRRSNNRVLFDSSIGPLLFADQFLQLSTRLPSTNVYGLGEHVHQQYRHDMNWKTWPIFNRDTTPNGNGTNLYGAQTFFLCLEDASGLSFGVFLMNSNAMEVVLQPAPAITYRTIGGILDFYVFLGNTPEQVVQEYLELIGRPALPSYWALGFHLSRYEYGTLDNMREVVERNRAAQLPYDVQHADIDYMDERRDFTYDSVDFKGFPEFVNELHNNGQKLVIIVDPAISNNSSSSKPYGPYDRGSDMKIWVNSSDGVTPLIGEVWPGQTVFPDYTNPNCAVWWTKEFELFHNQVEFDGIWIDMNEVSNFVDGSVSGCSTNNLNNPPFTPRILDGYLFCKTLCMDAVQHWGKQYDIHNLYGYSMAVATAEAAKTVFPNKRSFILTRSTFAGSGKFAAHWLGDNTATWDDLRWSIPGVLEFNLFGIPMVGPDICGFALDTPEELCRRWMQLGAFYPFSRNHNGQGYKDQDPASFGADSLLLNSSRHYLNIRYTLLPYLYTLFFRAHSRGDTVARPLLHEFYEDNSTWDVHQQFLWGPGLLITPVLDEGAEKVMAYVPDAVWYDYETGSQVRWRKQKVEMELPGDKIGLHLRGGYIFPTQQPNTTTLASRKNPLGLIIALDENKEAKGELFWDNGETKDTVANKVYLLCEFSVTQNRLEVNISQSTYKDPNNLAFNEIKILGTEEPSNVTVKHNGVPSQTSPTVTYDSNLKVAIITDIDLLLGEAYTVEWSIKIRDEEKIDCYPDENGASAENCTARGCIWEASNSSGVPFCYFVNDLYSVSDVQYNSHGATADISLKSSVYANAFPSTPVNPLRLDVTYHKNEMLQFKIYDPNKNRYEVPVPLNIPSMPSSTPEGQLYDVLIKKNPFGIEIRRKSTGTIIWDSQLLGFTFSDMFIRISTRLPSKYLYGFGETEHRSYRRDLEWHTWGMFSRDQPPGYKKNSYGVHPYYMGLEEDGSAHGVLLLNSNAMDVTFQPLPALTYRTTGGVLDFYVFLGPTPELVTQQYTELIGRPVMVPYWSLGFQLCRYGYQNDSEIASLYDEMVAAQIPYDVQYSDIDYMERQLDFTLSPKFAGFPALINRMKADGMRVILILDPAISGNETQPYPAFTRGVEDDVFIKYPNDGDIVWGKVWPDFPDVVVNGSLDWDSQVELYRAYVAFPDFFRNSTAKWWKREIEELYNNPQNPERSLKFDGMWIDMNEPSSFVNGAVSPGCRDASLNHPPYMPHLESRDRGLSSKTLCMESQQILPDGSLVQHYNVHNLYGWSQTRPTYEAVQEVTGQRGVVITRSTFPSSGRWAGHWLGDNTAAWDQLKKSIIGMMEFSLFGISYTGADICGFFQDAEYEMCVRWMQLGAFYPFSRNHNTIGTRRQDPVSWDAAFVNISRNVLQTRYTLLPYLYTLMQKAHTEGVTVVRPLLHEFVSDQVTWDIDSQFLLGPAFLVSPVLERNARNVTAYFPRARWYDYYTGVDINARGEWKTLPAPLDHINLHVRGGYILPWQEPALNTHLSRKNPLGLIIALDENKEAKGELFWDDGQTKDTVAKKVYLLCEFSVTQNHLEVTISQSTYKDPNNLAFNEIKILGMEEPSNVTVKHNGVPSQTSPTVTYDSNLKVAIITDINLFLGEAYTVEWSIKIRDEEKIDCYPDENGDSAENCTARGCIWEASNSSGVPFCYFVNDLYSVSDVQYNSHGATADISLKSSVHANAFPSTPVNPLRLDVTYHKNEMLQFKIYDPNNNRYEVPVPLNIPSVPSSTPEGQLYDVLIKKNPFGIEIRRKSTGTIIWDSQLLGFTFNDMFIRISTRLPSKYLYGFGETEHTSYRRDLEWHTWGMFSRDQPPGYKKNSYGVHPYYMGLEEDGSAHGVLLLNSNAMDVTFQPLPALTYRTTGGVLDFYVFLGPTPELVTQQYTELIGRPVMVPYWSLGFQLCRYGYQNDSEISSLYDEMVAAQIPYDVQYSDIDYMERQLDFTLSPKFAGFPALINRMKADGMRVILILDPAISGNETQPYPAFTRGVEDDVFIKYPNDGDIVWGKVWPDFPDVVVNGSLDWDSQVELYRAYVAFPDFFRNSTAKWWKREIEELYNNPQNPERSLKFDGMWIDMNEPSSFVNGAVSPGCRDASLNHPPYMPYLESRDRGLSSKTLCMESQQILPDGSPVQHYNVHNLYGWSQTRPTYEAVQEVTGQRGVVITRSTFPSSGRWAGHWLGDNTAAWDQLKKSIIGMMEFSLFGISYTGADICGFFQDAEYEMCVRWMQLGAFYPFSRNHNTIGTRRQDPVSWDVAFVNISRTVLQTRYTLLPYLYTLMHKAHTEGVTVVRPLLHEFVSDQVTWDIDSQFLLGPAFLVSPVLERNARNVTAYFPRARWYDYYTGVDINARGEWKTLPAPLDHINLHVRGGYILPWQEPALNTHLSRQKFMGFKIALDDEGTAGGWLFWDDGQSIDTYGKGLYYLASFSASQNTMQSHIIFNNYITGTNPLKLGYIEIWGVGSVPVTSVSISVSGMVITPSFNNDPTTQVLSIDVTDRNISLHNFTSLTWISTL

SMILES	IC50
C=C1C(=O)O[C@@H]2/C=C(\C)CC/C=C(\C)C[C@@H](OC(=O)/C(=C\COC(C)=O)CO)[C@@H]12	> 29 µM
C=C1C(=O)O[C@@H]2/C=C(\C)CC/C=C(\C)C[C@@H](OC(=O)/C(=C/CO)CO)[C@@H]12	> 28 µM
C=C1C(=O)O[C@@H]2/C=C(\C)[C@@H](O)C/C=C(\C)C[C@@H](OC(=O)/C(=C\C)COC(C)=O)[C@@H]12	> 25 µM
C=C1C(=O)O[C@@H]2/C=C(\C)CC/C=C(\C)C[C@@H](OC(=O)/C(=C/C)COC(C)=O)[C@@H]12	> 25 µM
C=C1C(=O)O[C@@H]2/C=C(\C)CC/C=C(\C)C[C@@H](OC(=O)/C(=C\C)CO)[C@@H]12	> 29 µM
C=C1C(=O)O[C@@H]2/C=C(\C)CC/C=C(\C)C[C@@H](OC(=O)/C(=C/C)CO)[C@@H]12	> 29 µM
C=C1C(=O)O[C@@H]2/C=C(\C)C[C@H](O)/C=C(\C)C[C@@H](OC(=O)/C(=C\C)CO)[C@@H]12	> 28 µM
O=c1c(O)c(-c2ccc(O)c(O)c2)oc2cc(O)cc(O)c12 [2-(3,4-dihydroxyphenyl)-3,5,7-trihydroxy-chromone;hydrate]	10.8 µM
C=C1C(=O)O[C@@H]2/C=C(\C)CC/C=C(\CO)C[C@@H](OC(=O)/C(C)=C/C)[C@@H]12	> 25 µM
C=C1C(=O)O[C@@H]2/C=C(\C)C[C@H](O)/C=C(\C)C[C@@H](OC(=O)/C(=C\C)COC(C)=O)[C@@H]12	> 25 µM
